Consider 15 compounds from ChEMBL document CHEMBL5055627 (J Med Chem, 2021).

For orientation: IC50 means the concentration at which inhibition is half-maximal.

Data set [1] can be described thus: Inhibition of Mycobacterium tuberculosis 20S proteasome open gate mutant expressed in Escherichia coli BL21(DE3) using Suc-LLVY-AMC as substrate measured over 1.5 to 2 hrs by plate reader assay.
The subject of data set [2] is human 20S constitutive proteasome subunit beta-5c (versus Mycobacterium tuberculosis 20S open gate mutant). The data set can be described thus: Selectivity index, ratio of IC50 for human 20S constitutive proteasome subunit beta-5c to IC50 for Mycobacterium tuberculosis 20S open gate mutant. It is filed as toxicity. The conditions noted are these: read-out: Ratio IC50.

Data set [3] deals with human 20S immunoproteasome subunit beta-5i (versus Mycobacterium tuberculosis 20S open gate mutant). Kind of data set: Selectivity index, ratio of IC50 for human 20S immunoproteasome subunit beta-5i to IC50 for Mycobacterium tuberculosis 20S open gate mutant. It is filed as toxicity. The conditions noted are these: read-out: Ratio IC50.

Bounds are passed on as bounds.

In the case of `O=C1CCCCCCCCOC[C@@H](C(=O)NCc2cccc3ccccc23)NC(=O)[C@H](CC(=O)N2CCCC2)N1`, the half-maximal inhibitory concentration (IC50) in data set [1] turned out to be 100 nM.
With `O=C1CCc2cccc(c2)OCCCC[C@@H](C(=O)NCc2ccccc2F)NC(=O)[C@H](CC(=O)N2CCC[C@@H]2c2ccccc2)N1`, the selectivity ratio in data set [2] and in data set [3] was more than 14000 throughout. For the same compound, in data set [1], the half-maximal inhibitory concentration (IC50) was found to be 7 nM.
For the compound `CCN(CC)C(=O)C[C@H](NC(=O)CCc1ccccc1)C(=O)N[C@@H](Cc1ccc(F)cc1)C(=O)NCc1cccc2ccccc12`, the figures for the selectivity ratio in data set [2] and in data set [3] were 4670 and 3650, respectively. The same compound showed an IC50 in data set [1] of 15 nM.
In the case of `O=C1CCc2cccc(c2)Oc2ccc(cc2)C[C@@H](C(=O)NCc2ccccc2F)NC(=O)[C@H](CC(=O)N2CCC[C@@H]2c2ccccc2)N1`, the selectivity ratio in data set [2] and in data set [3] was more than 13600 throughout. The IC50 in data set [1] was found to be 7.4 nM.
Take `O=C(N[C@H]1Cc2cccc(c2)Oc2ccc(cc2)C[C@@H](C(=O)NCc2ccccc2F)NC(=O)[C@H](CC(=O)N2CCC[C@@H]2c2ccccc2)NC1=O)c1ccccc1`: the selectivity ratio in data set [2] and in data set [3] was more than 119 each time. The same compound came in with an IC50 in data set [1] of 840 nM.
In data set [1], `O=C1CCCCCCCCC[C@@H](C(=O)NCc2cccc3ccccc23)NC(=O)[C@H](CC(=O)N2CCCC2)N1` registered a half-maximal inhibitory concentration (IC50) of 710 nM.
Same read-out and setting: then `Cc1ccc(CNC(=O)[C@@H]2Cc3cccc(c3)Oc3cccc(c3)C[C@H](N)C(=O)N[C@@H](CCc3ccccc3)C(=O)N2)cc1`, with more than 100000 nM; and `O=C1CCCCCCCCCC[C@@H](C(=O)NCc2cccc3ccccc23)NC(=O)[C@H](CC(=O)N2CCCC2)N1`, with 150 nM.
On to `O=C1CCc2cccc(c2)OCCCC[C@@H](C(=O)NCc2ccccc2F)NC(=O)[C@H](CCN2CCC[C@@H]2c2ccccc2)N1`, for which the selectivity ratio was determined as 57 in data set [2] and 31 in data set [3]. In data set [1], the IC50 is 1500 nM.
As for `CC(=O)N[C@H]1Cc2cccc(c2)Oc2ccc(cc2)C[C@@H](C(=O)NCc2ccccc2F)NC(=O)[C@H](CC(=O)N2CCC[C@@H]2c2ccccc2)NC1=O`, the selectivity ratio in data set [2] and in data set [3] was more than 594 throughout. The same compound had an IC50 in data set [1] of 170 nM.
With `O=C1CCCCCCCCOC[C@@H](C(=O)NCc2ccccc2F)NC(=O)[C@H](CC(=O)N2CCC[C@@H]2c2ccccc2)N1`, the selectivity ratio in data set [2] and in data set [3] was more than 14000 throughout. The compound further gave an IC50 in data set [1] of 7 nM.
As to `O=C1CCc2cccc(c2)OCCCC[C@@H](C(=O)NCc2ccccc2F)NC(=O)[C@H](CC(=O)N2CCC[C@@H]2C2CC2)N1`, the selectivity ratio in data set [2] and in data set [3] was 11 each time. In data set [1], this compound gave an IC50 of 7 nM.
On to `O=C1CCc2cccc(c2)OCCCC[C@@H](C(=O)NCc2ccccc2F)NC(=O)[C@H](CC(=O)N2CCC[C@H]2C2CC2)N1`, for which the results for the selectivity ratio in data set [2] and in data set [3] were 19 and 11, respectively. The compound further displayed a half-maximal inhibitory concentration (IC50) in data set [1] of 79 nM.
In data set [1], `O=C1CCc2cccc(c2)Oc2ccc(cc2)C[C@@H](C(=O)NCc2ccccc2F)NC(=O)[C@H](CC(=O)N2CCCC2)N1` registered an IC50 of 200 nM. Also, in data set [3], the selectivity ratio stood at 108.
On to `O=C1N[C@@H](CC(=O)N2CCCC2)C(=O)N[C@H](C(=O)NCc2cccc3ccccc23)CCCCCCCCCC1Cc1ccccc1` (some centres undefined), for which the IC50 in data set [1] is 5000 nM.
